Data from patent EP4635959A1, “NOVEL CRYSTALLINE FORM OF MAGNESIUM-SERINATE AND METHOD FOR PRODUCING SAME” (Astrogen, Inc., priority 2022, dated 2024).

How the values were obtained:
[1] = system: primary mouse astrocytes; assay: Cytoprotective effect on oxidative stress induced by DMNQ (MTT cell viability); assay type: cell-based; conditions: for cell viability: pre-treated 6 hours with 1 mM, 2 mM, 5 mM, then DMNQ (30 µM) with compound for 16 hours, MTT, Fig. 8
Protocol: A 1-day-old mouse brain was removed, the olfactory bulb was removed, and the meninges were peeled off. After collecting the resultant in a 50 mL tube including HBSS (Hank's balanced salt solution) and centrifuging at 250 × g for 1 minute, the supernatant was removed. 2 mL of trypsin/EDTA (0.5 %), 8 mL of HBSS buffer, and 0.2 mL of DNase were mixed and reacted in a 37 °C constant temperature water bath for 30 minutes. After adding 18 mL of the culture medium and 2 mL of trypsin/EDTA thereto and pipetting 10 times, the resultant was filtered using a 40 µm cell strainer. Then, the supernatant was removed after centrifugation at 800 × g for 2 minutes. After adding 5 mL of the culture solution thereto, the number of cells was confirmed using a hemocytometer and the cells were cultured to obtain primary mouse astrocytes.
After inoculating cells (primary astrocytes, 1 × 10^5 cells) per well in a 96-well plate and culturing at 5 % CO2 and 37 °C for 24 hours to obtain a cell monolayer, the composition was diluted with a cell inoculation medium and the diluted composition each at a concentration of 0 mM, 1 mM, 2 mM, and 5 mM was inoculated at 100 µL/well, and then cultured in a 5 % CO2 and 37 °C incubator for 6 hours. […] Then, after removing the culture medium, 0.5 mg/mL of MTT solution was added to each well in an amount of 100 µL and reacted in a 5 % CO2 and 37 °C incubator for 2 hours. After completely removing the MTT solution and drying the culture plate, the formazan crystals formed in the cells were dissolved with DMSO, and the absorbance was measured at 590 nm with an ELISA plate reader to evaluate cell viability and drug efficacy.

[2] = Stability test under harsh condition (qNMR, maleic acid standard); assay type: physicochemical
Protocol: In order to confirm the stability of the crystalline form of the present invention depending on conditions, a stability test was conducted under harsh conditions.
The magnesium-serinate crystalline form prepared in Example 2 was stored in a solid state at 70 °C and in an aqueous solution having a concentration of 0.5 mg/mL at 25 °C (60.0 % relative humidity) for 21 days, respectively, and then maleic acid was set as a standard substance, and the stability (measurement of content and related materials) was confirmed through qNMR analysis.
For the qNMR analysis method, analysis conditions were established by measuring the spin-lattice relaxation time T1 of the nuclide ^1H of magnesium-serinate on the sample obtained through the preliminary stress test. The T1 value was set at 4.708 seconds, and the measurement waiting time (d1: delay time) and measurement time (at: acquisition time) were set based on this value. The measurement waiting time (d1) was set to 30 seconds, and the measurement time (at) was set to being equal to or greater than the T1 value.
For the ^1H-NMR measurement for qNMR analysis, JEOL's JNM-ECX400I (400 MHz) NMR equipment was used, and spectral width (sw) was set at 6,000 Hz to sufficiently reflect the frequency range from 0 ppm to 10 ppm.

[3] = Evaluation of occurrence of polymorphic transition on storage (PXRD and DSC); assay type: physicochemical; conditions: for DSC Endothermic Temperature: (dec.)
Protocol: In order to confirm whether the polymorphic transition of the magnesium-serinate crystalline form of the present invention occurs over time, PXRD and DSC analyses were performed in the initial state and after 4 weeks to confirm whether or not the polymorphic transition occurred.
Specifically, the crystalline form prepared in Example 2 was added into a polyethylene bag, placed in a stability chamber under conditions of a temperature of 40 °C and a relative humidity of 75 %, and stored for 4 weeks. PXRD and DSC analyses were performed in substantially the same manner as in Experimental Examples 2 and 3.

[4] = Moisture measurement (Karl Fischer method); assay type: physicochemical; conditions: 0.5 g of sample
Protocol: (§1) Moisture and pH evaluations were performed in the same manner as in Experimental Example 7, and the heavy metal test and the content test were performed in the same manner as in Example 1.
(§2) The crystalline form of the present application prepared in Example 1 and the amorphous form of AST-011 (Comparative Example 2) were comparatively evaluated for the following test items by the following methods, and the results are shown in Table 7 below. - Appearance evaluation: Visual observation - Moisture measurement: According to the moisture measurement method (Karl Fischer method) of the general test method of the 12th edition of the Korean Pharmacopoeia, measured by adding 0.5 g of the sample into a moisture meter (Mettler Toledo, V10-S, Switzerland). - Infrared spectrum measurement method (IR): Measurement was made with FT-IR equipment (PerkinElmer, Spectrum 2, USA) according to the ATR measurement method of the general test method of the 12th revision of the Korean Pharmacopoeia. - pH measurement: 0.5 g of the sample was added into a 10 mL volumetric flask, and water was added to a final volume of 10 mL, and measurement was made with a pH meter (Mettler Toledo, FP-20 Switzerland). - XRD and DSC analyses: The analyses were performed in the same way as in Experimental Examples 2 and 3.

[5] = pH measurement of aqueous sample; assay type: physicochemical; conditions: 0.5 g of sample in water, final volume 10 mL
Protocol: as §1, §2

[6] = Appearance evaluation on storage (visual observation); assay type: physicochemical; conditions: storage for 3 months under the same conditions as AST-011
Excerpt: as §2, with “3. […]” for “3.”

[7] = 25°C, Aqueous solution state (0.5 mg/mL, 60.0 % relative humidity), initial state
[8] = 70°C, Solid state, initial state
[9] = initial vs after 4 weeks at 40 °C, relative humidity 75 %

Row | Compound | cell viability [1] | Purity of magnesium-serinate (%) ([2]; 25°C, Aqueous solution state (0.5 mg/mL, 60.0 % relative humidity), 9 days) | Concentration of Total Related Materials (%) ([2]; 25°C, Aqueous solution state (0.5 mg/mL, 60.0 % relative humidity), 21 days) | Concentration of Total Related Materials (%) [2, 7] | Purity of magnesium-serinate (%) [2, 7] | Purity of magnesium-serinate (%) ([2]; 70°C, Solid state, 9 days) | Concentration of Total Related Materials (%) ([2]; 70°C, Solid state, 21 days) | Concentration of Total Related Materials (%) [2, 8] | Purity of magnesium-serinate (%) [2, 8] | DSC Endothermic Temperature ([3]; after 4 weeks at 40 °C and relative humidity of 75 %, polyethylene bag) | Result of Comparative Analysis [3, 9] | Result of PXRD Analysis [3, 9] | DSC Endothermic Temperature ([3]; initial) | Moisture Content [4] | Moisture Content ([4]; listed as Example 2) | pH [5] | Appearance (stability) [6] | cytotoxicity at 30 µM ([1]; Mus musculus, Astrocyte, 16 h, read-out: cells killed by oxidative stress)
1 | N[C@@H](CO)C(=O)O [Comparative Example 1, L-serine] | excellent |  |  |  |  |  |  |  |  |  |  |  |  |  |  |  |  | 
2 | N[C@@H](CO)C(=O)[O-].N[C@@H](CO)C(=O)[O-].[Mg+2] [Crystalline Form of Present Application, magnesium-di-(2S)-2-amino-3-hydroxypropanoate] | excellent | 100.07% | 0.00% | 0.00% | 100.12% | 100.15% | 0.00% | 0.00% | 100.12% | 282.5 °C (dec.) | no occurrence of polymorphic transition | same crystalline form | 283.0 °C (dec.) | 0.2% | 0.1% | 10.3 | Fig. 7(b) light gray or white powder (stability: no change after 3 months) | 
3 | COC1=C(OC)C(=O)c2ccccc2C1=O [DMNQ, 1,4-naphthoquinone] |  |  |  |  |  |  |  |  |  |  |  |  |  |  |  |  |  | ~50%
